“And” between values parts separate entries of the source, which are not always exact repeats. Equal entries are not always repeated.
Columns and labels:
[1] = molecular target: T1, recombinant full-length PfCLK3 (Plasmodium falciparum, UniProt Q8IIL5); experiment: TR-FRET protein kinase assay; type: biochemical; details: Apparent pIC50 (PfCLK3), 15 min preincubation, 2 h incubation
T1 sequence (Q8IIL5 1-699): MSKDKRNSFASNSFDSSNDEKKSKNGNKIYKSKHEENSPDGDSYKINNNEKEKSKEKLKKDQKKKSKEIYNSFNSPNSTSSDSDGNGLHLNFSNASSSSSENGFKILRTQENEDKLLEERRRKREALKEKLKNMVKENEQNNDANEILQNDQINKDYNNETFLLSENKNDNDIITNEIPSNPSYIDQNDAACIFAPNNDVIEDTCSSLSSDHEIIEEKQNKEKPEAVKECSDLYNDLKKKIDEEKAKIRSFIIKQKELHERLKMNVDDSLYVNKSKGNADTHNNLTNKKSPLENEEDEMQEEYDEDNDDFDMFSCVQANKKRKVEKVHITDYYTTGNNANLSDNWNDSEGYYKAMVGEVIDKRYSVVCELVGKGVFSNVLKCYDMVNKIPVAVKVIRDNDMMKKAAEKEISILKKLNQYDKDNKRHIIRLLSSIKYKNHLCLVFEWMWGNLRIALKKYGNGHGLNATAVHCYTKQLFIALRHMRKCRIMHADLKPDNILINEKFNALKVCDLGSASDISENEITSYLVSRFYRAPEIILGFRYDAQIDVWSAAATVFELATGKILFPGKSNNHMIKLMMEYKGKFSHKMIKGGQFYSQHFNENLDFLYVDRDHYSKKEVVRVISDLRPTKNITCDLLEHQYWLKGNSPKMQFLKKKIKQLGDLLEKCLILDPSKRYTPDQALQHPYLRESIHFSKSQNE
Procedure: To a black 384-well plate was added 2.5 μL of each concentration of inhibitor serially diluted 1 in 3, 11 times from a 40 μM (4×) top concentration normalized to 4% DMSO, and 5 μL of 50 nM (2×) recombinant PfCLK3. Both were dissolved in kinase buffer (50 mM HEPES 7.4, 1 mM EGTA, 1 mM MgCl2, 0.01% Tween, and 1 mM TCEP). […] 5 μL of detection mix (30 mM EDTA, 3 nM AntiMBP in 1× PerkinElmer Lance detection buffer) was added to quench the kinase reaction, and plates were incubated at room temperature in the dark for 1 h.

full-length PfCLK3 = details: PfCLK3 5 μg; triplicate wells
Procedure: To a 384-well thermal shift plate, 5 μL protein thermal shift buffer (Thermo Fisher Scientific), 5 μg full length PfCLK3 (4.17 μL, 1.2 mg/mL), 8.13 μL thermal shift buffer (Thermo Fisher Scientific), 0.2 μL 10 mM compound or vehicle (DMSO), and 2.5 μL protein thermal shift dye (Thermo Fisher Scientific) were added in triplicate. […] 5 Qpcr (Thermo Fisher Scientific). Fluorescence was recorded as proteins unfolded. The Boltzmann distribution was calculated and Tm obtained using Protein Thermal Shift Software v1.4 (Thermo Fisher Scientific).

EGFR(h) = EGFR(h) (Homo sapiens, UniProt P00533); experiment: biochemical
Procedure: (§1) Compounds were evaluated using Eurofins Discovery’s KinaseProfiler Diversity Panel of 58 representative kinases. KinaseProfiler is a radiometric assay using [γ-^33P]-ATP to measure the phosphorylation of individual kinase substrates. A representative protocol for Abl is given below. Further details can be found by visiting the Eurofins Discovery Web site.
(§2) The reaction is initiated by the addition of the Mg/ATP mix. After incubation for 40 min at room temperature, the reaction is stopped by the addition of phosphoric acid to a concentration of 0.5%.

IKKα(h) = IKKα(h) (Homo sapiens, UniProt O15111); experiment: biochemical
Procedure: as §1, §2

KDR(h) = KDR(h) (Homo sapiens, UniProt P35968); experiment: biochemical
Procedure: as §1, §2

PDGFRβ(h) = PDGFRβ(h) (Homo sapiens, UniProt P09619); experiment: biochemical
Procedure: as §1, §2

PKA(h) = PKA(h) (Homo sapiens, UniProt P17612); experiment: biochemical
Procedure: as §1, §2

PKBα(h) = PKBα(h) (Homo sapiens, UniProt P31749); experiment: biochemical
Procedure: as §1, §2

PKCα(h) = PKCα(h) (Homo sapiens, UniProt P17252); experiment: biochemical
Procedure: as §1, §2

Pim-1(h) = Pim-1(h) (Homo sapiens, UniProt P11309); experiment: biochemical
Procedure: as §1, §2

Rse(h) = Rse(h) (Homo sapiens, UniProt Q06418); experiment: biochemical
Procedure: as §1, §2

SAPK2a(h) = SAPK2a(h) (Homo sapiens, UniProt Q16539); experiment: biochemical
Procedure: as §1, §2

SRPK1(h) = SRPK1(h) (Homo sapiens, UniProt Q96SB4); experiment: biochemical
Procedure: as §1, §2

physchem = details: pH 7.5, GSH t1/2, 37 °C, 10:1 ratio GSH:compound
ALK(h) = ALK(h) (Homo sapiens, UniProt Q9UM73); experiment: biochemical
AMPKα1(h) = AMPKα1(h) (Homo sapiens, UniProt Q13131); experiment: biochemical
Aurora-A(h) = Aurora-A(h) (Homo sapiens, UniProt O14965); experiment: biochemical
CaMKI(h) = CaMKI(h) (Homo sapiens, UniProt Q14012); experiment: biochemical
CDK2/cyclinA(h) = CDK2/cyclinA(h) (Homo sapiens, UniProt P24941); experiment: biochemical
CDK7/cyclinH/MAT1(h) = CDK7/cyclinH/MAT1(h) (Homo sapiens, UniProt P50613); experiment: biochemical
CDK9/cyclin T1(h) = CDK9/cyclin T1(h) (Homo sapiens, UniProt P50750); experiment: biochemical
CK1γ1(h) = CK1γ1(h) (Homo sapiens, UniProt Q9HCP0); experiment: biochemical
CK2α2(h) = CK2α2(h) (Homo sapiens, UniProt P19784); experiment: biochemical
Chain of CK2α2(h) (P19784 whole entry): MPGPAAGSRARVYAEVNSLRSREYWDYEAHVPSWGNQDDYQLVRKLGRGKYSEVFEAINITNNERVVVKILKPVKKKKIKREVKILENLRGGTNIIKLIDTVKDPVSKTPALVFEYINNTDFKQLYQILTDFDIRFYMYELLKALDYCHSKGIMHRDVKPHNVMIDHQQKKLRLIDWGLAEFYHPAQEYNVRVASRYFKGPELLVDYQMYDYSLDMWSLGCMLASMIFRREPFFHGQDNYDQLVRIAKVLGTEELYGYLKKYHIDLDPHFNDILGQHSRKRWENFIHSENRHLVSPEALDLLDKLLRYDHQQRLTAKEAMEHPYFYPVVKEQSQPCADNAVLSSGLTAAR

Chain of CDK7/cyclinH/MAT1(h) (P50613 whole entry): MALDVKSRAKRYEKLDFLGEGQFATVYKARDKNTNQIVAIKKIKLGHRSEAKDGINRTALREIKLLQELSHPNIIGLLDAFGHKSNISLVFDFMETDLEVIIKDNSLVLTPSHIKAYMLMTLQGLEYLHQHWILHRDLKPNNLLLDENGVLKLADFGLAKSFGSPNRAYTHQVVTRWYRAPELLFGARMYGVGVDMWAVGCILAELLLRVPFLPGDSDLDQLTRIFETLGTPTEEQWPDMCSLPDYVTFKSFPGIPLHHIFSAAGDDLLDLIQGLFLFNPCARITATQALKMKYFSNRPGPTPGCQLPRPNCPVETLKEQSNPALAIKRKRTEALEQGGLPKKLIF
Chain of CDK7/cyclinH/MAT1(h) (P51946 whole entry partner): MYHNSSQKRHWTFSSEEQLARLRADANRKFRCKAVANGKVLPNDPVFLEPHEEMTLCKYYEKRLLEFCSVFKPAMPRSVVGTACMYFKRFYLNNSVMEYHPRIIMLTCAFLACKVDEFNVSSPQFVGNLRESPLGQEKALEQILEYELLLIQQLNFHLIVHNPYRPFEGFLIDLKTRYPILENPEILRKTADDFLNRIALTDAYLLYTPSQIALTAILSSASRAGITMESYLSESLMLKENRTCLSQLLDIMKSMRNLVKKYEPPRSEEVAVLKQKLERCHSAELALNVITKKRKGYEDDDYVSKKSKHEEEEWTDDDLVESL
Chain of CDK7/cyclinH/MAT1(h) (P51948 whole entry partner): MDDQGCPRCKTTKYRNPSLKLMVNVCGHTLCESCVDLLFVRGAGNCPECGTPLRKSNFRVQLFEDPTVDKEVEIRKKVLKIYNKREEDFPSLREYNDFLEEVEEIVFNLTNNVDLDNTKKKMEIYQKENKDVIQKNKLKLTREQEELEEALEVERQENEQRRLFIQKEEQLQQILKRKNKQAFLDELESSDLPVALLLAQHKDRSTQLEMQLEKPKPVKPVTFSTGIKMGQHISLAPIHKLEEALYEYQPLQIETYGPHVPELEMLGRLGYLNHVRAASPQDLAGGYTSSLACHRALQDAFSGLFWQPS
Chain of CaMKI(h) (Q14012 whole entry): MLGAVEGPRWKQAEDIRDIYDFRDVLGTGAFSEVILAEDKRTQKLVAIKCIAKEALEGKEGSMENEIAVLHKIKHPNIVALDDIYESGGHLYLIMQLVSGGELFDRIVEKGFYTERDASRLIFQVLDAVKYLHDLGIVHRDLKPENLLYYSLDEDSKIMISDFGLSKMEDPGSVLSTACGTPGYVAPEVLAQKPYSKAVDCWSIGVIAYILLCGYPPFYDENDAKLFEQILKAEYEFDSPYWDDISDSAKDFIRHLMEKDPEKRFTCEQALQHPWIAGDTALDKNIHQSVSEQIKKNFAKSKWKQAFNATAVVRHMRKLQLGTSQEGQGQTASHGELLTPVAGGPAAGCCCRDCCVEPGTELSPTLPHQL
Chain of ALK(h) (Q9UM73 19-1620): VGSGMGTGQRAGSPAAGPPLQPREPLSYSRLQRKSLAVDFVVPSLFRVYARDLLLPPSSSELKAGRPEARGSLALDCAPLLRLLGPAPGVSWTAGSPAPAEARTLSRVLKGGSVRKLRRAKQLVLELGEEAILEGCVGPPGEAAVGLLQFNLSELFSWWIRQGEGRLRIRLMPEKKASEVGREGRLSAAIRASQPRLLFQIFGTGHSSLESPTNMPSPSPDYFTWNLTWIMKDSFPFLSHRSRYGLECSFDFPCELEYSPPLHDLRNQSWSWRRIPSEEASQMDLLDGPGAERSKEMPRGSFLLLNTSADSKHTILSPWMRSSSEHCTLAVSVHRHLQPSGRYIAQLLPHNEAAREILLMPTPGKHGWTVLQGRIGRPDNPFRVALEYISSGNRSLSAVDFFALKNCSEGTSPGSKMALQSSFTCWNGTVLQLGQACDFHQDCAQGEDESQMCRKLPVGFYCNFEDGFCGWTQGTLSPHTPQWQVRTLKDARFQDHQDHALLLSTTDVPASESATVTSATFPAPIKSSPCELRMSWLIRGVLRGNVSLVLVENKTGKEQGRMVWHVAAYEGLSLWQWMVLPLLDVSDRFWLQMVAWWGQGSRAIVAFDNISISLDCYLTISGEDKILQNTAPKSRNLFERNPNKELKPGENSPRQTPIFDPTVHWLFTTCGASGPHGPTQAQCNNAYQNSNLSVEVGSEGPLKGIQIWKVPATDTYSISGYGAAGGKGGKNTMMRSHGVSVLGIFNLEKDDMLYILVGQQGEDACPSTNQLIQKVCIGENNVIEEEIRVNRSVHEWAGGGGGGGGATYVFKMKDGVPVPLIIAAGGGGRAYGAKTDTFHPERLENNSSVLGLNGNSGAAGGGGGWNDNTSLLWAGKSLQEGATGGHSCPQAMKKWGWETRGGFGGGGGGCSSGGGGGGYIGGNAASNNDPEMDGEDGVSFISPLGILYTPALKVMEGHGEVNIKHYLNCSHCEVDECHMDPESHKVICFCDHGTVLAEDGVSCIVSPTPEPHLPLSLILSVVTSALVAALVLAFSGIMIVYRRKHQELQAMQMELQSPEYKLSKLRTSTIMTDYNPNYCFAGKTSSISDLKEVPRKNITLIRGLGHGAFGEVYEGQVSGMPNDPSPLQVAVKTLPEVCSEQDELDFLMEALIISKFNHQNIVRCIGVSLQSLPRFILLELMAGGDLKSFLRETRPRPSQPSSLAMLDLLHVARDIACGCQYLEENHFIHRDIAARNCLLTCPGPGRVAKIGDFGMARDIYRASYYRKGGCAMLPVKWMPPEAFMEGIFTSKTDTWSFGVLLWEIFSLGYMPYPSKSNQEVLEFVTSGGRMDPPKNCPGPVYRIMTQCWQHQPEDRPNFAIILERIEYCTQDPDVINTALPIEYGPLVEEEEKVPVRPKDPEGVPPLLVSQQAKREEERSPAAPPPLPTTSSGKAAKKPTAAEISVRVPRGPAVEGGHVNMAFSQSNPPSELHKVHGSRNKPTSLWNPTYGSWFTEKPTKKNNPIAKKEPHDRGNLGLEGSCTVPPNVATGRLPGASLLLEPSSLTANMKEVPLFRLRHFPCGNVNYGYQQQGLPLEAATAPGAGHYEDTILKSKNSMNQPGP
Chain of Rse(h) (Q06418 41-890): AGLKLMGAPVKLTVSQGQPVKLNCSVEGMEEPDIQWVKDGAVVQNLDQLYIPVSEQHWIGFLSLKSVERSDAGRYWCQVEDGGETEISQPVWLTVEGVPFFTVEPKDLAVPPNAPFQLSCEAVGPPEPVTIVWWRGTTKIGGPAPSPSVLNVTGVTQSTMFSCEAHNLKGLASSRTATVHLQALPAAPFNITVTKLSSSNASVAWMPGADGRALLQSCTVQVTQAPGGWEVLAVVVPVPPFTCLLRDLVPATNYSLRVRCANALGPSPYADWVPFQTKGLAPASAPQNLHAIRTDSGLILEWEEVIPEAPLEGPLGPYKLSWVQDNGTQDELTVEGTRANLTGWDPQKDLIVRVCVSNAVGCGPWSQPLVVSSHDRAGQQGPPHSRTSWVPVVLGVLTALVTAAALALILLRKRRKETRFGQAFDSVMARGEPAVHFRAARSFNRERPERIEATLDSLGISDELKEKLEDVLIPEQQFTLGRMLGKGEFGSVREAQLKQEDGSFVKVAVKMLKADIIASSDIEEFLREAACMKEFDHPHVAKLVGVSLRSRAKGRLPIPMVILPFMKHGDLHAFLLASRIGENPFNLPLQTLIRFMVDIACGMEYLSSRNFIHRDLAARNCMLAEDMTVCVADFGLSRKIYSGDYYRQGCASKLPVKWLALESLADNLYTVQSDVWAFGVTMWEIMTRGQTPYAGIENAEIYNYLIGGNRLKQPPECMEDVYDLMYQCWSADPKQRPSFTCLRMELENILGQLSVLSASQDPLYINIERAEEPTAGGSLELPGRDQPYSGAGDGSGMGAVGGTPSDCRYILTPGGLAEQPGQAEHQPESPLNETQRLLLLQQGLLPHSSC
Chain of Aurora-A(h) (O14965 whole entry): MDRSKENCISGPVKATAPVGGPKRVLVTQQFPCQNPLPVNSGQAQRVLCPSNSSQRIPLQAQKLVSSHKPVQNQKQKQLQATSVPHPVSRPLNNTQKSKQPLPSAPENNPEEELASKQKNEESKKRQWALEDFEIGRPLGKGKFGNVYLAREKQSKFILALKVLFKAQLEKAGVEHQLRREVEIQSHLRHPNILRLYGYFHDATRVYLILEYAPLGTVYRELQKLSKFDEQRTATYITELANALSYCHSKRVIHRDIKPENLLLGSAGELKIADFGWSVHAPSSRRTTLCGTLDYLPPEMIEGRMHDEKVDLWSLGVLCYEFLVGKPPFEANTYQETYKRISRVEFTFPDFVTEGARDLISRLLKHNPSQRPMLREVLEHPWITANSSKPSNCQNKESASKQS
Chain of CK1γ1(h) (Q9HCP0 whole entry): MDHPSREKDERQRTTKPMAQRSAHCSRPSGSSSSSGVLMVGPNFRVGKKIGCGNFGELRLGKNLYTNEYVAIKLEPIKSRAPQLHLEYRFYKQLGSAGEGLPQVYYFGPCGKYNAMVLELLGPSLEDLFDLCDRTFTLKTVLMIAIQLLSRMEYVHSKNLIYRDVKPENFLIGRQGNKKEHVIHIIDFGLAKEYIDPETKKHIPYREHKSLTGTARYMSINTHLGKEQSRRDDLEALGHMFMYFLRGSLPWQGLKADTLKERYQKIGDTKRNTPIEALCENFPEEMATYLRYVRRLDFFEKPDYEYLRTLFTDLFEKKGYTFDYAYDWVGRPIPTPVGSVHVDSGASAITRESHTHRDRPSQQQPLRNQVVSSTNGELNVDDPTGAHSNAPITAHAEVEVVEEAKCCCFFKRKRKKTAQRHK

## CCN(CC)Cc1ccc(OC)c(-c2cc3c(-c4ccc(C(=O)O)c(C(C)C)c4)ccnc3[nH]2)c1 [Compound 1, TCMDC-135051]
[1]; [ATP] = 500 μM
  IC50: 87.1 nM
[1]; [ATP] = 3 mM
  IC50: 447 nM
[1]; [ATP] = Km (5 μM)
  IC50: 7.76 nM
full-length PfCLK3
  Tm B: 66.66 and 66.67 and 66.65
EGFR(h)
  remaining activity at 1 µM: 95%
IKKα(h)
  remaining activity at 1 µM: 93%
KDR(h)
  remaining activity at 1 µM: 61%
PDGFRβ(h)
  remaining activity at 1 µM: 94%
PKA(h)
  remaining activity at 1 µM: 101%
PKBα(h)
  remaining activity at 1 µM: 106%
PKCα(h)
  remaining activity at 1 µM: 73%
Pim-1(h)
  remaining activity at 1 µM: 101%
Rse(h)
  remaining activity at 1 µM: 109%
SAPK2a(h)
  remaining activity at 1 µM: 105%
SRPK1(h)
  remaining activity at 1 µM: 105%
physchem
  half-life at 1 mM: > 72 h
ALK(h)
  remaining activity at 1 µM: 30%
AMPKα1(h)
  remaining activity at 1 µM: 46%
Aurora-A(h)
  remaining activity at 1 µM: 11%
CaMKI(h)
  remaining activity at 1 µM: 100%
CDK2/cyclinA(h)
  remaining activity at 1 µM: 30%
CDK7/cyclinH/MAT1(h)
  remaining activity at 1 µM: 102%
CDK9/cyclin T1(h)
  remaining activity at 1 µM: 6%
CK1γ1(h)
  remaining activity at 1 µM: 85%
CK2α2(h)
  remaining activity at 1 µM: 39%
